Experimental data reported in patent US12503484B2, “Androstane derivatives with activity as pure or predominantly pure stimulators of SERCA2a for the treatment of heart failure” (Seismic Pharmaceuticals, priority 2019, dated 2025).
Structures can show the parent of a compound that is named as a salt. Where two headings read alike, the source gives them in different places.

Columns and labels:
STZ diabetic rats = assay: Haemodynamics in streptozotocin diabetic rats (echocardiography); assay type: in vivo, rat; details: for diastolic function (in words) / overall cardiac function, SV and CO (in words): IV infusion
Method: CVie214 and CVie216 were tested in a diabetic rat model. Briefly, rats were injected with streptozotocin (STZ). After 7-9 weeks from STZ injection, rats were submitted to transthoracic echocardiographic and Doppler evaluation performed under urethane anesthesia. Two-dimensionally guided M-mode recordings were used to obtain short-axis measurements of left ventricular end-diastolic diameter (LVEDD), left ventricular end-systolic diameter (LVESD), posterior (PW) and septal (SW) diastolic wall thickness according to the American Society of Echocardiography guidelines (Lang R M et al., Eur J Echocardiography 2006, 7:79-108). Fractional shortening was calculated as FS=(LVEDD−LVESD)/LVEDD. Relative wall thickness was calculated as PWTd+IVSTd/LVEDD. Mitral inflow was measured by pulsed Doppler at the tips of mitral leaflets from an apical 4-chamber view to obtain early and late filling velocities (E, A) and deceleration time of early filling velocity (DT). The deceleration slope was calculated as E/DT ratio. The mitral deceleration index was calculated as DT/E ratio. Tissue Doppler Imaging (TDI) was evaluated from the apical 4-chamber view to record septal mitral annular movements, i.e., peak myocardial systolic (s′) and early and late diastolic velocity (e′ and a′).
After baseline hemodynamic measurements were taken, the rats were administered Digoxin, CVie214, CVie216 and compared to control. Digoxin, used as reference drug, was intravenously infused at 0.11 mg/kg/min for 15 min and echocardiographic parameters measured after 1 h. CVie214-salt and CVie216-salt were intravenously infused in STZ diabetic rats at 0.2 mg/kg/min and echocardiographic parameters were measured after 15 min and 30 min.
Tables 4-6 show the haemodynamic parameters in STZ diabetic rats for Digoxin, CVie214-salt, and Cvie216-salt.

[1] = Acute toxicity in the mouse; details: Albino Swiss CD-1, in vivo
Method: The acute toxicity of the tested compound CVie214-salt and CVie216-salt have been determined in the mouse (Albino Swiss CD-1, body weight 30 g). Compounds have been orally administered or intravenously injected at increasing doses to identify the dose causing 50% mortality. Mortality occurred within 30 min after the administration and survival after 24 h.
As comparison, the acute toxicity for the reference compounds Digoxin and Istaroxime were also included. Digoxin refers to literature data (www.lookchem.com, Reference for Digoxin intravenous: Afifi A M, Ammar E M. Pharmacological Research Communications. Vol. 6, Pg. 417, 1974; Reference for Digoxin oral: Archives Internationales de Pharmacodynamie et de Therapie. Vol. 153, Pg. 436, 1965) (Table 3).

in vivo = assay: in vivo; set-up: dose or concentration left out as unconfirmed; details: rat
[2] = tested on: mouse (Albino Swiss CD-1); details: data from literature, cited from earlier work
SERCA2a = SERCA2a (Cavia porcellus, UniProt A0A286XD73); details: literature; cited from earlier work
[3] = tested on: rat ventricular myocytes isolated from STZ rats; details: literature; cited from earlier work
[4] = target: dog renal Na^+/K^+ ATPase (Canis lupus familiaris (Dog) (Canis familiaris), UniProt P50997); details: read-out: IC50 inhibition of dog renal Na+/K+ ATPase; purified dog kidney enzyme;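 note: enzyme preincubated with inhibitor 10 min at 37 °C, then K^+ and ^32P-ATP added for 15 min, released ^32P counted, activity relative to untreated control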
From the text: Inhibition of Dog Renal Na^+/K^+ ATPase Activity
The compounds were thus tested for their inhibitory effect on the canine renal Na^+/K^+ ATPase enzyme.
Kidneys were excised from 1-3 year-old male beagle dogs (WuXi AppTec, Suzhou Co., Ltd. 1318 Wuzhong Ave., Wuzhong District Suzhou, 215104 P.R. China) under pentobarbital anesthesia (Import Authorization from Italian Health Ministry 0009171-09/04/2015-DGSAF-COD_UO-P, 2015). Kidneys were sliced and the outer medulla was dissected and suspended (1 g/10 ml) in a sucrose-histidine solution containing 250 mM sucrose, 30 mM histidine, and 5 mM EDTA, pH 7.2. The tissue was homogenized by using an Ultra Turrax homogenizer. The sample was centrifuged at 6,000 g for 15 min. Next, the supernatant was decanted and centrifuged at 48,000 g for 30 min. The pellet was suspended in the sucrose-histidine buffer and incubated for 20 min with a sodium-dodecyl-sulphate (SDS) solution dissolved in a gradient buffer containing 25 mM imidazole and 1 mM EDTA, pH 7.5. The sample was layered on the top of a sucrose discontinuous gradient (10, 15, and 29.4%) and centrifuged at 60,000 g for 115 min. The pellet was suspended in the gradient buffer.
Increasing concentrations of the standard ouabain, or tested compound, were incubated with 0.3 μg of purified dog kidney enzyme for 10 min at 37° C. in 120 μl final volume of a medium containing 140 mM NaCl, 3 mM MgCl2, 50 mM Hepes-Tris, 3 mM ATP, pH 7.5. Then, 10 μl of a solution containing 10 mM KCl and 20 nCi of ^32P-ATP (3-10 Ci/mmol, Perkin Elmer) were added. The reaction was allowed to continue for 15 min at 37° C. and then stopped by acidification with 20% v/v ice-cold perchloric acid. ^32P was separated by centrifugation with activated Charcoal (Norit A, Serva) and the radioactivity was counted. The inhibitory activity was expressed as percent of the control samples carried out in the absence of ouabain, or tested compound.

[5] = after 15 min IV infusion 0.2 mg/kg/min
[6] = after 30 min IV infusion 0.2 mg/kg/min
[7] = after 15 min Digoxin IV infusion 0.11 mg/kg/min

Chain of SERCA2a (A0A286XD73 1-997): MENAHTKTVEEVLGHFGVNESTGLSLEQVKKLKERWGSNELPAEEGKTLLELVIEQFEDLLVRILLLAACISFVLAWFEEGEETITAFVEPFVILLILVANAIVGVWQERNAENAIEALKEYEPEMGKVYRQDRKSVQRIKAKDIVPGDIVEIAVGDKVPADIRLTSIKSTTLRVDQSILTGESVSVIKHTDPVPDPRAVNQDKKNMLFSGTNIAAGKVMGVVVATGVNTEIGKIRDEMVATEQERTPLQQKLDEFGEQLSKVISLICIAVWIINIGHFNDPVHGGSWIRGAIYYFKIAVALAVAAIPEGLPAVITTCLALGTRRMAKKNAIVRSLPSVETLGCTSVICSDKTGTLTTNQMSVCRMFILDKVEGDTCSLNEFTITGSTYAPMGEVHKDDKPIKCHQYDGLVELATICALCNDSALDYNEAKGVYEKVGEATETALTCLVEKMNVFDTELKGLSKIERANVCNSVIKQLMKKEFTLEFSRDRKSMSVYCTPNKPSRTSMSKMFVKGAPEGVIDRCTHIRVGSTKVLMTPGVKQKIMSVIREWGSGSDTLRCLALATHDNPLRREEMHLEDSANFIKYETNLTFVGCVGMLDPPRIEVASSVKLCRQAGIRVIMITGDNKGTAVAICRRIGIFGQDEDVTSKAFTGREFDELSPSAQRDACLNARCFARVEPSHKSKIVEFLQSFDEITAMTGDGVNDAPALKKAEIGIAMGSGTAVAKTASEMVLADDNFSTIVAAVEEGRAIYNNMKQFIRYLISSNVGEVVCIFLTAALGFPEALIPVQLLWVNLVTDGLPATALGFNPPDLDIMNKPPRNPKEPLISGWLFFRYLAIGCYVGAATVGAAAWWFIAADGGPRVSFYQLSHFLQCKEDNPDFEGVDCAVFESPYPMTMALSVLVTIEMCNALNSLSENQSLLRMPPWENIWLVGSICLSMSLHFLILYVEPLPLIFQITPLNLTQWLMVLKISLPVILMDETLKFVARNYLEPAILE

## C[C@]12CC[C@H](CCCC(=O)O)CC1[C@@H](O)CC1C2CC[C@]2(C)C(=O)CCC12 (stereo partly drawn) [CVie214-salt, 4-(6alpha-hydroxy-17-oxoandrostane-3-yl) butyric acid]
STZ diabetic rats
  diastolic function (in words): ameliorated diastolic function
  overall cardiac function, SV and CO (in words): improvement
STZ diabetic rats; [5]
  A late filling velocity of mitral inflow: 0.65 ± 0.13 m/s
  CO cardiac output: 177.23 ± 40.64 mL/min
  DT deceleration time of E wave: 42.5 ± 10.19 ms
  DT/E mitral deceleration index: 49.52 ± 12.41 s2/m
  E early filling velocity of mitral inflow: 0.88 ± 0.15 m/s
  E/A index of LV function: 1.36 ± 0.17
  E/DT deceleration slope: 21.49 ± 5.8 m/s2
  E/e′ index of LV filling pressure: 37.49 ± 4.34
  FS fractional shortening: 58.1 ± 8.59%
  HR heart rate: 268 ± 54 beat/min
  SV stroke volume: 0.68 ± 0.19 ml/beat
  a′ TDI late relaxation velocity: 29.13 ± 6.56 cm/s
  e′ TDI early relaxation velocity: 23.33 ± 2.62 cm/s
  s′ TDI contraction velocity: 22.45 ± 3.12 cm/s
STZ diabetic rats; [6]
  A late filling velocity of mitral inflow: 0.69 ± 0.11 m/s
  CO cardiac output: 175.15 ± 33.96 mL/min
  DT deceleration time of E wave: 42.15 ± 9.88 ms
  DT/E mitral deceleration index: 48.51 ± 16.44 s2/m
  E early filling velocity of mitral inflow: 0.91 ± 0.16 m/s
  E/A index of LV function: 1.34 ± 0.21
  E/DT deceleration slope: 23.18 ± 8.37 m/s2
  E/e′ index of LV filling pressure: 37.47 ± 4.48
  FS fractional shortening: 60.69 ± 8.36%
  HR heart rate: 252 ± 49 beat/min
  SV stroke volume: 0.71 ± 0.16 ml/beat
  a′ TDI late relaxation velocity: 28.94 ± 5.32 cm/s
  e′ TDI early relaxation velocity: 24.24 ± 2.34 cm/s
  s′ TDI contraction velocity: 21.82 ± 2.81 cm/s
[1]; iv
  LD50 at 24 h: 300 mg/kg
[1]; oral, os
  LD50 at 24 h: > 800 mg/kg
In vivo
  bioavailability: 41.5%

## C[C@H]1O[C@@H](O[C@H]2[C@@H](O)C[C@H](O[C@H]3[C@@H](O)C[C@H](O[C@H]4CC[C@@]5(C)[C@H](CC[C@@H]6[C@@H]5C[C@@H](O)[C@]5(C)[C@@H](C7=CC(=O)OC7)CC[C@]65O)C4)O[C@@H]3C)O[C@@H]2C)C[C@H](O)[C@@H]1O [Digoxin, reference compound]
[2]; iv
  LD50: 7.7 mg/kg
[2]; os
  LD50: 17.8 mg/kg
SERCA2a
  stimulation of SERCA2a activity (in words): failed to stimulate
STZ diabetic rats
  diastolic function (in words): ameliorated diastolic function
  overall cardiac function, SV and CO (in words): did not affect
STZ diabetic rats; [7]
  A late filling velocity of mitral inflow: 0.79 ± 0.19 m/s
  CO cardiac output: 155.6 ± 45.7 mL/min
  DT deceleration time of E wave: 44.1 ± 10.29 ms
  DT/E mitral deceleration index: 50.18 ± 17.05 s2/m
  E early filling velocity of mitral inflow: 0.92 ± 0.19 m/s
  E/A index of LV function: 1.20 ± 0.21
  E/DT deceleration slope: 22.66 ± 9.56 m/s2
  E/e′ index of LV filling pressure: 38.95 ± 7.31
  FS fractional shortening: 53.1 ± 5.6*6%
  HR heart rate: 257 ± 36 beat/min
  SV stroke volume: 0.6 ± 0.12 ml/beat
  a′ TDI late relaxation velocity: 29.78 ± 6.17 cm/s
  e′ TDI early relaxation velocity: 23.82 ± 2.87 cm/s
  s′ TDI contraction velocity: 26.03 ± 4.66 cm/s
[3]
  effect detected by the SR loading protocol: did not detect any effect
[4]
  IC50: 180 nM
